IC50 data for two compounds are collected here from ChEMBL document CHEMBL4118035, “Total Synthesis of the Claimed Structure of (±)-Hyptinin and Structural Revision of Natural Hyptinin” (J Nat Prod, 2017).

The assay in a line: Growth inhibition of ATL patient-derived S1T cells after 72 hrs by WST-8 assay. The class given is functional. To be noted: Homo sapiens.

The structures appear in SMILES notation.

A word on the IC50: it is the concentration that gives 50% inhibition. High values mean weaker potency in that assay, low ones greater potency in that assay. The compound `COc1cc(C2C3=C(Cc4cc5c(cc42)OCO5)C(=O)OC3)cc(OC)c1OC` (configuration not stated) gave a half-inhibitory concentration (IC50) of 5.1 nM.
`COc1cc(C2C3=C(Cc4c2cc2c(c4OC)OCO2)C(=O)OC3)cc(OC)c1OC` (configuration not stated) gave an IC50 of 7 nM.
